Measurements: patent US9896476B1, “Glycyrrhetic acid derivatives” (KING SAUD UNIVERSITY, priority 2017, dated 2018)
Where “and” joins values, the source holds several entries; their conditions need not be identical. Identical values can stand only once.

Tests used:
Acute toxicity in mice = conditions: mouse, in vivo; male mice; route for the LD50 not stated (oral and intraperitoneal tests described)
Description: […]. The animals were divided into groups of six mice each. The compounds were given orally, suspended in 1% gum acacia, in doses of 1, 10, 100, 200, 250, 300 mg/kg.
The mortality percentage in each group was recorded after 24 h.
Additionally, the test compounds were investigated for their parenteral acute toxicity in groups of six mice each as reported earlier. The compounds, or their vehicle propylene glycol (control), were given by intraperitoneal injection in doses of 10, 25, 50, 75, 100 mg/kg. The percentage survival was followed up to seven days.

[1] = system: cotton pellet-induced granuloma; assay: Cotton pellet-induced granuloma bioassay; assay type: in vivo, rat; conditions: for ED50: rat cotton pellet granuloma; for The anti-inflammatory activity ED50: rat, compound-impregnated cotton pellets implanted s.c., 7 days, dose response 4, 7, 10 and 15 μmol
Description: An animal model cotton pellet-induced granuloma bioassay was used to determine ED50 for the compounds (2)-(4). Adult male Sprague Dawley rats (120-140 g), were used in the cotton pellet-induced granuloma bioassays. The rats were acclimated one week prior to use and allowed unlimited access to standard rat chow and water. Prior to the start of the experiment, the animals were randomly divided into groups of six rats each. Cotton pellet (35±1 mg) cut from dental rolls were impregnated with 0.2 ml (containing 0.01 mmol) of a solution of each of compounds (2)-(4) in chloroform, and the solvent was allowed to evaporate. Each cotton pellet was subsequently injected with 0.2 ml of an aqueous solution of antibiotics (1 mg penicillin G and 1.3 mg dihydrostreptomycin/ml). Two pellets were implanted subcutaneously, one in each axilla of the rat, under mild general anesthesia. One group of animals received the standard reference pharmaceutical indomethacin and the antibiotics at the same level. Pellets containing only the antibiotics were similarly implanted in control rats. Seven days later, the animals were sacrificed and the two cotton pellets, with adhering granulomas, were removed, dried for 48 h at 60° C. and weighed. The increment in dry weight (difference between the initial and final weight) was taken as a measure of the dry weight of granuloma±SEM. The dry weight of granuloma and the percentage reduction in dry weight of granuloma relative to the respective control value were calculated for all rats. The ED50 values were determined through dose response curves using doses of 4, 7, 10 and 15 μmol for each compound.

Human COX-2 = biological target: T1, Human COX-2 (Homo sapiens, UniProt P35354); assay: Human COX-2 enzymatic assay; assay type: biochemical; conditions: for IC50: 5 min pre-incubation, 45 min incubation with [14C]-arachidonic acid at 24° C.; for Approximate selectivity ratio COX-1/COX-2: ratio of COX-1 IC50 to COX-2 IC50
T1 sequence (P35354 18-604): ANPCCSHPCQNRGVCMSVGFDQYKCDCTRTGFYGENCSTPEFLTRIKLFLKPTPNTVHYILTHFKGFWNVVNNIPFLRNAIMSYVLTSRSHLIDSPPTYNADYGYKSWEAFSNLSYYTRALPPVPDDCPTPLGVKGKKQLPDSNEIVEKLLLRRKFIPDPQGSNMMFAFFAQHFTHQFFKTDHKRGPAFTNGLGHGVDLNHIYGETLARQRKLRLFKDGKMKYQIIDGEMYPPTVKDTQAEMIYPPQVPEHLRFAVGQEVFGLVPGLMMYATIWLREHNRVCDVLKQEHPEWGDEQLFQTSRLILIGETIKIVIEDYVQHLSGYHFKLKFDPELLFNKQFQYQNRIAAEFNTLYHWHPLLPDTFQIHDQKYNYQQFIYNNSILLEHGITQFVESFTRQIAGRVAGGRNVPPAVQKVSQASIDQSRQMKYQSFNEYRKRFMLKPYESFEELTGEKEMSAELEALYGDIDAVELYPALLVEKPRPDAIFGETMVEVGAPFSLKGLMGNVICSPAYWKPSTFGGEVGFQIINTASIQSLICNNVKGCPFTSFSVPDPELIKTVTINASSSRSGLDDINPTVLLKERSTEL
Description: (§1) Human COX-1 and COX-2 activities were determined as described by Wakitani et al. 0.2 ml of 100 mmol Tris HCl buffer (pH 8) containing hematin (2 mmol) and tryptophan (5 mmol) as cofactors. The reaction mixture was pre-incubated with each test compound individually for 5 min at 24° C. [14C]-arachidonic acid (100.00 dpm, 30 mmol) was added to the mixture and then incubated for 2 min (for COX-1) or 45 min (for COX-2) at 24° C. The reaction was stopped by the addition of 400 μl of a solution composed of Et2O/MeOH/1 M citric acid (30:4:1, v/v/v). After centrifugation of the mixture at 1700×/g for 5 min at 4° C., 50 μl of the upper phase was applied to a thin layer chromatography plate. Thin layer chromatography was performed at 4° C. with solvent system of Et2O/MeOH/AcOH (90:2:0.1, v/v/v). Enzyme activity was calculated from the percent conversion of arachidonic acid to PGH2 and its de-composition products, using radiometric photographic system.

Human COX-1 = Human COX-1 (Homo sapiens, UniProt P23219); assay: Human COX-1 enzymatic assay; assay type: biochemical; conditions: 5 min pre-incubation, 2 min incubation with [14C]-arachidonic acid at 24° C.
Human COX-1, sequence (P23219 24-599): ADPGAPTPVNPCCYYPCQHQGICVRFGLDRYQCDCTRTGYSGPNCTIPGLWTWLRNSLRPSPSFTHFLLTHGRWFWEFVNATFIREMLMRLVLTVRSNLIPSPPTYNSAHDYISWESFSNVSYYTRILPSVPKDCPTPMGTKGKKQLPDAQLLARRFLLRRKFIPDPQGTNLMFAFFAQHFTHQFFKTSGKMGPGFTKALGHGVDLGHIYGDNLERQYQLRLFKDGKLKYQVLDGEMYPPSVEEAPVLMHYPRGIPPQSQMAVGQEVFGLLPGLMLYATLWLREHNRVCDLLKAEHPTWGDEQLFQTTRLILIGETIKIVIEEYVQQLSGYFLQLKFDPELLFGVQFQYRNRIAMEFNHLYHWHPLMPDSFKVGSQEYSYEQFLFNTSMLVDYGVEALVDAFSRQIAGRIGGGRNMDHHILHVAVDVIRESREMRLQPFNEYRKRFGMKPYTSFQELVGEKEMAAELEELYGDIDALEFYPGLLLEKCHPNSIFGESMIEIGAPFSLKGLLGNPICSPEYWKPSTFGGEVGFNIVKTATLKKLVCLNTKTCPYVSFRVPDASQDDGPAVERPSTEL
Description: as §1

H+/K+-ATPase = biological target: T2, H+/K+-ATPase (Sus scrofa, UniProt P19156); assay: H+/K+-ATPase (proton pump) inhibition in membrane vesicles of stomach mucosa; assay type: biochemical; conditions: pig gastric membrane vesicles, 37° C.; pre-incubation pH (6.0 or 7.4) not given
T2 construct: Membrane vesicles containing H^+/K^+-ATPase were prepared from pig stomachs; from tissue; host or cells: pig gastric mucosa membrane vesicles
T2 sequence (P19156 2-1034 limits assumed): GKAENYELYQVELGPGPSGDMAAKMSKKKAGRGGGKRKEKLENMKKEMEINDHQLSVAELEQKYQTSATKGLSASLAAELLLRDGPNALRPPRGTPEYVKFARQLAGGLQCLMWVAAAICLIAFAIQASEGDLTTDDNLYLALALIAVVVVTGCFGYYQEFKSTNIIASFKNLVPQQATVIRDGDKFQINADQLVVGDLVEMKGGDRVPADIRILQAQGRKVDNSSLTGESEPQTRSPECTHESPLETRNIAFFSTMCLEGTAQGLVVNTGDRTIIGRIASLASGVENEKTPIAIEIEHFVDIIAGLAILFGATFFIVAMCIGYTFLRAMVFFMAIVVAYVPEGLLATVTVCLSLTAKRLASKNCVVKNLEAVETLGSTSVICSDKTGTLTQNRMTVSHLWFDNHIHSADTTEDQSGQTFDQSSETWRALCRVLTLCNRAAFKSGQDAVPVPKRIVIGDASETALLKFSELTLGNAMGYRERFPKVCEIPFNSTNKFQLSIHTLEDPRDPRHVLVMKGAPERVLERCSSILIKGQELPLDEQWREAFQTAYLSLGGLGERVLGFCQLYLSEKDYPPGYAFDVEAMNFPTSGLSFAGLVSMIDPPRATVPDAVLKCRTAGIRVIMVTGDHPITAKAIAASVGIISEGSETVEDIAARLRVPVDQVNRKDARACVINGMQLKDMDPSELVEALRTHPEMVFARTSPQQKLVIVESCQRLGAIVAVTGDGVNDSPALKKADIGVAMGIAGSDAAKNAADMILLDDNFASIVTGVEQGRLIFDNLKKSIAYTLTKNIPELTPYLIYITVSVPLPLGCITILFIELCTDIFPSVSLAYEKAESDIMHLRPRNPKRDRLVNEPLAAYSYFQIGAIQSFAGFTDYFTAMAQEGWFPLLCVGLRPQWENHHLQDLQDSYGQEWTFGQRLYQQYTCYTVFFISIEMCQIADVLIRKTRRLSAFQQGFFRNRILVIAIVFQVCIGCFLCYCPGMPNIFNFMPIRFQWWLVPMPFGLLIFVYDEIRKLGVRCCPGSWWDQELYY
T2 sequence (P18434 whole entry partner): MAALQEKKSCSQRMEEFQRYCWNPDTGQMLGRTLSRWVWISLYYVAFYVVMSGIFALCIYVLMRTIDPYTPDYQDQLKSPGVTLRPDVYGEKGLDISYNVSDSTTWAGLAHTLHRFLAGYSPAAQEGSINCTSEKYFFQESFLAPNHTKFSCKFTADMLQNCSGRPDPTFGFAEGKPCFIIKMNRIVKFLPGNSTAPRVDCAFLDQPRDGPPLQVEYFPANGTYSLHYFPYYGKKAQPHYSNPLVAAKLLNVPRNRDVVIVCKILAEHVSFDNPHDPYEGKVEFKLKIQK
Description: Membrane vesicles containing H^+/K^+-ATPase were prepared from pig stomachs obtained from a local slaughter house. Pigs were fasted overnight before slaughter. The gastric mucosa of four stomachs was rinsed with cold saturated NaCl solution for 3-5 min. The superficial cells, cell debris plus the mucus were wiped off with the edge of a plastic ruler and paper towels. The mucosa was scraped off. About 100 g of scrapings were divided into portions of 10 g and homogenized in 0.25 M sucrose with seven strokes in a Potter-Elvehjem Teflon-glass homogenizer. […] The pellet was discarded. The supernatant was centrifuged at 75,000 g for 1 h. The resulting microsomal pellet was homogenized in 30 ml 0.25 M sucrose. Aliquots of 15 ml were transferred to 100 ml centrifuge tubes and layered on top of step gradients, from the bottom comprising 25 ml 37% sucrose (w/v) and 45 ml 7.5% Ficoll (w/v) in 0.25 M sucrose. The tubes were centrifuged at 75,000 g for 1 h in a 6×100 ml ME angle rotor at 4° C. The gradient was then fractionated by pumping Fluoroinert 70 through narrow tubing in a fractionating cap down to the bottom of the tube. Fractions are collected from top through a center hole in the fractionating cap. The yield of vesicles in a typical preparation is about 50-75 mg protein. In order to maintain a stable vesicular structure for a long period of time, the vesicles were frozen at −70° C. under nitrogen, and could then be kept for several months without decrease of H^+/K^+-ATPase activity. The ATPase activity was measured at 37° C. as the release of inorganic phosphate (Pi) from ATP. […] Then, the medium of pH 6.0 is adjusted with HEPES/Tris buffer to pH 7.4. The enzyme reaction is started by addition of nigericin and Tris/ATP. The total reaction volume is 1 ml, containing 20 μg vesicular protein, 4 mM MgCl2, 10 mM KCl, 20 μM nigericin, 2 mM Tris-ATP, 10 mM HEPES and additionally 2 mM Pipes for the pre-incubation medium at pH 6.0. After […] at 37° C., the reaction is stopped by the addition of […] of 50% trichloroacetic acid. The denatured protein was spun down and the Pi content is determined according to Le Bel et al. (1978) and based on the reduction of a phosphomolybdate complex by p-methyl-aminophenol sulfate in a copper acetate buffer or according to Carter and Karl (1982) based on the reaction of phosphomolybdate with the basic dye malachite green. […] IC50 values of the test compound at different pH values were compared with IC50 values of the standard. Statistical differences (P<0.05) were calculated by Student's t-test.

[2] = system: carrageenan-induced rat paw edema; assay: Carrageenan-induced rat paw edema; assay type: in vivo; conditions: for % Protection / Increase in paw edema (ml) ± SEM: 10 μmol/kg s.c. 1 h prior to carrageenan; for % Protection: 4 h, relative to DMSO control; for Increase in paw edema (ml) ± SEM: increase between 0 h and 4 h; for Activity relative to indomethacin: 10 μmol/kg s.c., indomethacin = 100
Description: Male albino rats weighing 120-150 g were used in these experiments. The rats were kept in an animal house under standard conditions of light and temperature with free access to food and water. The animals were randomly divided into groups of six rats each for each experimental and control group. The paw edema was induced by subplantar injection of […] of 2% carrageenan solution in saline (0.9%). […] A control group was injected with DMSO only. The volume of paw edema (ml) was determined by means of a plethysmometer immediately after carrageenan injection and 4 h later. The increase in paw volume between 0 h and 4 h after carrageenan injection was measured. The percentage protection against inflammation was calculated according to the following formula: % Protection=100%×(Vc−Vd)/Vc where Vc is the 4 h increase in paw volume in the control animals (control) and Vd is the 4 h increase in paw volume in the test animals. Data are expressed as the mean±SEM. Significant difference between the control and test groups was determined using Student's t-test and P values. The difference in results was considered significant when P<0.001.

pyloric ligation ulcer = assay: Pyloric ligation ulcer model (antiulcer activity); assay type: in vivo, rat; conditions: rats, oral 30 min prior to pyloric ligation, 4 h, compounds 100 mg/kg, omeprazole 40 mg/kg; for Free acid / Total acid: gastric contents
Description: Pyloric ligation ulcer models were used to test each of compounds (2)-(4) for antiulcer activity. Male rats (140 and 175 g) were selected for pyloric ligation ulcer model experiments and divided into eleven groups consisting of six animals each. The rats were fasted overnight. One group received normal saline 2 ml/kg (negative control), the second group received omeprazole 40 mg/kg (positive control) and the other groups received each of the compounds (2)-(4) (100 mg/kg) by oral route 30 min prior to pyloric ligation. Animals were sacrificed 4 h later and their stomachs were opened to collect the gastric contents. The gastric contents were centrifuged at 1000 rpm for 10 min. One ml of the supernatant liquid was pipetted out and diluted to a total volume of 10 ml with distilled water. The solution was titrated against 0.01 N sodium hydroxide solution using Topfer's reagent to indicate the end point when the solution turned […]. The volume of NaOH consumed was taken as corresponding to the free acidity. Titration was further continued until the solution regained pink color. The volume of sodium hydroxide solution required to achieve the pink color was noted and total acidity calculated. After opening the stomach, the ulcer index was calculated.
The results are expressed as mean±SEM. The difference between groups was determined using the one way analysis of variance (ANOVA) followed by Dunnett's test. P<0.05 was considered significant.

Row | SMILES | LD50 (Acute toxicity in mice) [mg/kg] | ED50 [1] [µmol] | The anti-inflammatory activity ED50 [1] [µmol] | IC50 (Human COX-2) [µM] | Approximate selectivity ratio COX-1/COX-2 (Human COX-2) | IC50 (Human COX-1) [µM] | IC50 (H+/K+-ATPase) [µM] | % Protection [2] [%] | Increase in paw edema (ml) ± SEM [2] [mL] | Activity relative to indomethacin [2] | Free acid (pyloric ligation ulcer) [mEq/L] | Total acid (pyloric ligation ulcer) [mEq/L] | Ulcer Index (pyloric ligation ulcer) | The anti-inflammatory activity ED50 ([1]; listed as indomethacin) [µmol]
1 | CC1(C(=O)O)CCC2(C)CCC3(C)C(=CC(=O)C4C5(C)C/C(=C\c6ccc(F)cc6)C(=O)C(C)(C)C5CCC43C)C2C1 (stereo not drawn) [Compound 2, 2-(4-fluorobenzylidene)-3,11-dioxo-18β-olean-12-en-30-oic acid] | 3100 | 1.52 | 1.52 ± 0.0019 | 0.109 | 2733.94 | 298 | 11.46 ± 0.009 | 98.40 | 0.0157 ± 0.0004 | 132.09 | 0.09 | 0.09 | 1.16 | –
2 | Cn1nc2c(c1-c1ccc(F)cc1)CC1(C)C(CCC3(C)C1C(=O)C=C1C4CC(C)(C(=O)O)CCC4(C)CCC13C)C2(C)C (stereo not drawn) [Compound 3, 2-(4-fluorobenzylidene)-3,11-dioxo-18β-olean[3,2-c]-1′H-5′-(4-fluorophenyl)-N-methylpyrazoline-12-en-30-oic acid] | 3360 | 1.47 | 1.47 ± 0.0021 | 0.091 | 3438.57 and 3428.57 | 312 | 10.03 ± 0.0072 | 98.49 | 0.0148 ± 0.0003 | 132.21 | 0.08 | 0.08 | 1.12 | –
3 | Cn1nc2c(c1-c1ccc(F)cc1)CC1(C)C(CCC3(C)C1C(=O)C=C1C4CC5(C)CC(OC5=O)C4(C)CCC13C)C2(C)C (stereo not drawn) [Compound 4, 2-(4-fluorobenzylidene)-3,11-dioxo-18β-olean[3,2-c]-1′H-5′-(4-fluorophenyl)-N-methylpyrazoline-12-en-30-oic acid (30→22β) lactone] | 3460 | 1.35 | 1.35 ± 0.0034 | 0.087 | 3965.52 | 345 | 9.21 ± 0.0076 | 98.77 | 0.0121 ± 0.0002 | 132.58 | 0.06 | 0.06 | 1.04 | –
4 | COc1ccc2c(c1)c(CC(=O)O)c(C)n2C(=O)c1ccc(Cl)cc1 [Indomethacin, reference compound] | – | – | 9.568 ± 0.098 | – | – | – | – | – | 0.25 ± 0.0005 | – | – | – | – | 9.568
5 | COc1ccc2[nH]c([S+]([O-])Cc3ncc(C)c(OC)c3C)nc2c1 (stereo not shown) [Omeprazole, reference compound] | – | – | – | – | – | – | 66.1 ± 1.11 | – | – | – | 0.43 | 0.33 | 3.31 | –
